The record followed here is patent publication EP4653001A1, “TREATMENT, DIAGNOSIS AND/OR PROGNOSIS OF MITOCHONDRIAL DISEASES” (Universidad Autónoma de Madrid, priority 2024, dated 2025).

In one test the test system is primary neurons. The test is described as follows: Intracellular calcium mobilization (excitability) assay. The settings on record: CI inhibition. The format is cell-based, mouse. Here is the method: Neuronal functionality was measured by the Rhod-4 No Wash Calcium Assay Kit (Abcam, Cat No. ab112157), following the manufacturer's instructions for intracellular calcium assay. In short, culture medium was removed, and Rhod-4 dye containing buffer was gently added to cells, followed by incubation at 37 degrees for 30 min followed by 20 min at room temperature. For imaging and quantification of intracellular calcium mobilization, confocal images were acquired using a Zeiss LSM800 confocal microscope (Jena, Alemania) enabled with a 10X objective. Time lapse images of the confocal scan were acquired every 0.5 second over a ten-minute period. Neuronal cultures were treated with 100mM KCl (final concentration) added after the first 4 minutes to establish a baseline and observe the steady- state changes in calcium mobilization in response to the treatment. Acquired confocal images were post-processed using the free and open-source Fiji image processing software. Fluorescent intensity changes were quantified using fixed parameters across the entire set of captured images.
For orientation: Calcium flux is commonly read through the fluorescence of an indicator in the cells.

For test [1], the system named is mouse cortical neurons. The test is described as follows: NADPH/NADP+ levels in neurons (NADP/NADPH-Glo). The format is cell-based. The settings on record: CI-inhibited neurons. Here is the method:
(§1) Primary cultures of C57BL/6 mouse cortical neurons were prepared from embryos between embryonic days 16.5 and 17.5 and seeded onto pre-treated plates coated with Poly-L-lysine hydrobromide (500 µg/ml). We used Neurobasal medium without D-glucose and sodium pyruvate (ThermoFisher) to modulate D-glucose levels, depending on the experiment (2.5 mM, 5 mM, or 25 mM).
In standard experiments, we utilized Neurobasal medium with 25 mM D-glucose, 1 mM sodium pyruvate (ThermoFisher), B27 plus supplement (GIBCO), GlutaMax I 100X (GIBCO), and 1% penicillin/streptomycin (P/S). Starting from day 6 in vitro (DIV6), half of the medium was replaced every 3-4 days, omitting GlutaMax I.
The NADP/NADP-Glo™ Assay (Promega) was employed to assess the NADP/NADPH ratio in cultured cells, following the manufacturer's instructions (Technical Bulletin Number TM400). This bioluminescent assay can detect both total oxidized and reduced nicotinamide adenine dinucleotide phosphates (NADP+ and NADPH) and determine their ratio.
Cells were cultured in 24-well plates (Falcon®) at varying concentrations depending on the cell type and the specific experiment. After removing the media, we added 100 µl of PBS 1X per well and lysed the cells by introducing 100 µl of a base solution with 1% DTAB (1:1 ratio). […] Luminescence was measured using the CLARIOstar Plus plate reader from BMG LABTECH.

The subject of test [2] is mouse cortical neurons. The test is described as follows: PPP activity measurement in cortical neurons. The format is cell-based. The procedure: as §1
The determination of pentose-phosphate pathway (PPP) activity was conducted by assessing the difference between 14CO2 production from 1-14C-glucose, which decarboxylates through the 6-phosphogluconate dehydrogenase-catalyzed reaction, and that of 6-^14C-glucose, which decarboxylates through the tricarboxylic acid cycle.
Increased lactate secretion is considered a good indicator of enhanced glycolytic rates, which is a common feature of ETC-inhibited cells as they switch from OXPHOS to glycolysis to maintain ATP levels. […] We culture 143B cells in the presence of Piericidin for 24 h and PPP activity and lactate release, as a proxy of glycolysis, were measured. As expected, lactate detection in the media was higher in CI-inhibited cells. […] Next, we wonder if in this context, glucose can be overused by glycolysis and therefore diverted away from the PPP. Diseases associated with impaired mitochondrial function negatively impact high energy demanding tissues such as the brain. As such, neurons that are highly sensitive to ETC inhibition also rely strongly on glucose metabolism. Thus, we used mouse cortical neurons to determine the rates of glycolysis and PPP as glucose levels become limiting. Control and Piericidin treated neurons where cultured in media containing supraphysiological (25 mM), physiological (5 mM) or subphysiological concentrations of glucose (2,5 mM). […] Decreased PPP activity under low glucose (2,5 mM) correlated with a rapid decline in NADPH/NADP+ levels in CI-inhibited cells. Conversely, glucose availability had no effect on ATP levels at this timepoint.

Regarding `CC=C(C)C(O)C(C)C=C(C)C=CCC(C)=CCc1nc(OC)c(OC)c(O)c1C` (stereo not drawn) [Piericidin, Piericidin A], the excitability response result in the test with primary neurons was “diminished”. For the same molecule, the NADPH levels result with mouse cortical neurons [1] (100 nM, 24 h) is “marked drop”. Besides, in the test with mouse cortical neurons [1] (low glucose (2,5 mM)), the “NADPH/NADP+ levels” value is “rapid decline”. Further, the PPP activity entry is “trend towards reduced PPP activity” in the test on mouse cortical neurons [2] (5 mM glucose, did not reach statistical significance); “prominent drop” with mouse cortical neurons [2] (limited glucose availability (2,5 mM), 100 nM, 16 h); “significantly upregulation” in the test on mouse cortical neurons [2] (neurons cultured in 25 mM glucose, 100 nM, 16 h).
